Results on five molecules are retold here after patent US10266544B2, “Aryl substituted aminomethyl spectinomycin analogs as antibacterial agents” (ST. JUDE CHILDREN'S RESEARCH HOSPITAL, INC., priority 2013, dated 2019).

Molecules are shown by their SMILES. Counter-ions that a name gives are not always drawn. Like-named read-outs stand apart in the source and are kept apart here.

Holding throughout (format): cell-based
In assay [1] the test system is Streptococcus pyogenes (ATCC 700294). In words: MIC determination, microbroth dilution. As to conditions: ATCC700294; Streptococcus pyogenes (ATCC 700294); read-out: MIC S. py. A general note: In broth dilution the organism is exposed to a series of concentrations in liquid medium.
Assay [2] concerns M. tuberculosis clinical isolates. In words: microbe, parasite or virus in culture. As to conditions: Mycobacterium tuberculosis, H37RV, read-out: MIC H37Rv.
Assay [3] concerns Klebsiella pneumoniae (ATCC 33495). In words: MIC determination, microbroth dilution. As to conditions: ATCC33495.
The test system of a further assay is Listeria monocytogenes. In words: MIC determination (Table 6).
Assay [4] concerns Pseudomonas aeruginosa (PA01). Nature of the assay: MIC determination, microbroth dilution.
For another assay, the system named is E. coli K12 ΔtolC. In words: microbe, parasite or virus in culture. As to conditions: Escherichia coli, read-out: MIC E.c. Δtolc.
Assay [5] concerns MRSA, Staphylococcus aureus (NRS70). In words: MIC determination, microbroth dilution. As to conditions: read-out: MIC MRSA.
Assay [6] has as its system Bacillus subtilis (ATCC 23857). In words: MIC determination, microbroth dilution. As to conditions: ATCC23857; Bacillus subtilis (ATCC 23857); read-out: MIC B.s.
The test system of assay [7] is Haemophilus influenza (ATCC 49247). In words: microbe, parasite or virus in culture. As to conditions: ATCC49247; Haemophilus influenza; 4 μg per disc; range of at least two experiments; read-out: Zone of inhibition H.i.
Assay [8] has as its system Escherichia coli (ATCC 700926). Nature of the assay: MIC determination, microbroth dilution. As to conditions: ATCC700926; Escherichia coli (ATCC 700926); read-out: MIC E.c.
Assay [9] relates to Proteus mirabilis (ATCC 25933). Nature of the assay: MIC determination, microbroth dilution. As to conditions: ATCC25933.
The test system of assay [10] is Legionella pneumophila (ATCC 33153). In words: microbe, parasite or virus in culture. As to conditions: ATCC33153, 72 h, read-out: Zone of inhibition L.p.
For assay [11], the system named is Proteus vulgaris (ATCC 33420). Nature of the assay: MIC determination, microbroth dilution. As to conditions: ATCC33420.
Another assay concerns Bacillus anthracis. Nature of the assay: microbe, parasite or virus in culture. As to conditions: read-out: MIC B.a.
For assay [12], the system named is Neisseria meningitides (ATCC 13077). Nature of the assay: Disc diffusion assay. As to conditions: ATCC13077, 4 μg per disc, read-out: Zone of inhibition N.m. Background: A growth-free zone around the sample is the usual read-out of agar diffusion tests.
Assay [13] has as its system Streptococcus pneumoniae (R6). In words: MIC determination, microbroth dilution. As to conditions: read-out: MIC S. pn.
Assay [14] concerns Burkholderia cepacia (ATCC 25416). Nature of the assay: MIC determination, microbroth dilution. As to conditions: Burkholderia cepacia.
Assay [15] has as its system Enterococcus faecalis (ATCC 33186). Nature of the assay: MIC determination, microbroth dilution.
Assay [16] has as its system Staphylococcus aureus (ATCC 29213). In words: MIC determination, microbroth dilution. As to conditions: ATCC29213; Staphylococcus aureus (ATCC 29213); read-out: MIC S.a.
Assay [17] relates to acinetobacter baumannii (ATCC 19606). In words: MIC determination, microbroth dilution. As to conditions: ATCC19606.
Assay [18] relates to Stenotrophomonas maltophilia (ATCC 13637). In words: MIC determination, microbroth dilution. As to conditions: ATCC13637; Stenotrophomonas maltophilia (ATCC 13637); read-out: MIC S.m.
Assay [19] deals with Bacillus anthracis, Sterne 34F2. In words: microbe, parasite or virus in culture. As to conditions: STERNE34F2, read-out: MIC B.a.
In assay [20] the test system is Neisseria gonorrhoeae (ATCC 49226). In words: Agar MIC determination (Alamar Blue). As to conditions: ATCC49226, agar MIC, read-out: MIC N.g.
Another assay concerns Moraxella catarrhalis. In words: MIC determination (Table 6).
Assay [21] deals with Neisseria gonorrhoeae (ATCC 49226). Nature of the assay: Disc diffusion assay. As to conditions: ATCC49226, 4 μg per disc, read-out: Zone of inhibition N.g.
Where [22] appears, read: ATCC25416, read-out: MIC B.c., Burkholderia cepacia (ATCC 25416).
Where [23] appears, read: ATCC25416, read-out: MIC B.c., Burkholderia cepacia, Table 6.
Where [24] appears, read: ATCC33186, Enterococcus faecalis (ATCC 33186), read-out: MIC E.f.

What is called zone of inhibition is the size of the clear area around the sample on an inoculated plate. Consider `CN[C@@H]1[C@H](O)[C@H](NC)[C@H]2O[C@]3(O)[C@H](O[C@@H]2[C@H]1O)O[C@H](C)C[C@@]3(O)CNCc1ccc(Cl)cc1` [compound 18, 3′-(R)-3′-(4-Chlorobenzylaminomethyl)dihydrospectinomycin Trihydrobromide], for which the MIC was 0.8 to 1.6 µg/mL in assay [1]; 12.5 µg/mL in [2]; 200 µg/mL in assay [3]; 6.3 µg/mL in the assay on Listeria monocytogenes; 200 µg/mL in assay [4]; 3.1 to 6.3 µg/mL in the assay on E. coli K12 ΔtolC. Also, the MIC in assay [5] (Staphylococcus aureus) is 12.5 to 25 µg/mL; in assay [6], 3.1 µg/mL; in assay [8], 12.5 to 25 µg/mL; in [9] it was 200 µg/mL; in [11] it was 100 to 200 µg/mL; with Bacillus anthracis it was 25 µg/mL. For the same molecule, the MIC in assay [13] (Streptococcus pneumoniae (R6)) is 1.6 to 3.1 µg/mL; in [14] (setting [22]) it was 100 to 200 µg/mL; in [14] (setting [23]), 100 to 200 µg/mL; in assay [15] (Enterococcus faecalis, ATCC33186, read-out: MIC E.f.) it was 6.3 to 12.5 µg/mL; in assay [16], 25 to 50 µg/mL; in [17], greater than 200 µg/mL. The MIC in [18] came out at 25 µg/mL; in assay [19], 25 µg/mL; in assay [20], 25 µg/mL; with Moraxella catarrhalis, 0.8 µg/mL. For the same molecule, the zone of inhibition at 4 µg/disc in assay [7] was 15 to 16 mm; in assay [10] it was 21 mm; in assay [12], 16 to 18 mm.
Consider `CN[C@@H]1[C@H](O)[C@H](NC)[C@H]2O[C@]3(O)[C@H](O[C@@H]2[C@H]1O)O[C@H](C)C[C@@]3(O)CNCc1cccnc1` [compound 7, 3′-(R)-3′-(3-pyridinylmethylaminomethyl)dihydrospectinomycin Tetrahydrobromide], for which the MIC in assay [1] was 25 µg/mL; in [2] it was 50 to 100 µg/mL; in [3], greater than 200 µg/mL; in the assay on Listeria monocytogenes, 25 µg/mL; in assay [4], greater than 200 µg/mL; in the assay on E. coli K12 ΔtolC, 12.5 to 25 µg/mL. Further, the MIC in assay [5] (Staphylococcus aureus (NRS70)) was greater than 200 µg/mL; in assay [6] it was 100 µg/mL; in [8] it was 50 µg/mL; in assay [9], greater than 200 µg/mL; in assay [11], greater than 200 µg/mL; in the assay with Bacillus anthracis, 100 µg/mL. For the same molecule, the MIC is 12.5 to 25 µg/mL in assay [13] (Streptococcus pneumoniae); no less than 200 µg/mL in [14] (setting [22]); no less than 200 µg/mL in assay [14] (setting [23]); 200 µg/mL in [15] (setting [24]); no less than 200 µg/mL in assay [16]; no less than 200 µg/mL in [17]. The MIC in [18] amounted to 100 µg/mL; in [19] it was 100 µg/mL; in assay [20] it was 200 µg/mL; in the assay on Moraxella catarrhalis, 6.3 µg/mL. For the same molecule, the zone of inhibition at 4 µg/disc in [21] stood at 7 mm; in [7] it was 7 mm; in assay [10], 42 mm; in assay [12], 9 mm.
Turning to `CN[C@@H]1[C@H](O)[C@H](NC)[C@H]2O[C@]3(O)[C@H](O[C@@H]2[C@H]1O)O[C@H](C)C[C@@]3(O)CNCc1ccc(C(F)(F)F)cc1` [compound 5, 3′-(R)-3′-[(4-trifluoromethyl)benzylaminomethyl)]dihydrospectinomycin Trihydrochloride], the MIC in assay [1] was 1.6 µg/mL; in assay [2], 25 µg/mL; in assay [3], 100 µg/mL; with Listeria monocytogenes it was 12.5 µg/mL; in assay [4] it was 200 µg/mL; in the assay on E. coli K12 ΔtolC it was 6.3 to 12.5 µg/mL. The MIC was 25 µg/mL in [5] (Staphylococcus aureus (NRS70)); 6.3 µg/mL in assay [6]; 50 µg/mL in assay [8]; greater than 200 µg/mL in [9]; greater than 200 µg/mL in [11]; 25 to 50 µg/mL in the assay on Bacillus anthracis. Further, the MIC is 1.6 µg/mL in assay [13] (Streptococcus pneumoniae (R6)); 100 µg/mL in [14] (setting [22]); 100 µg/mL in [14] (setting [23]); 12.5 to 25 µg/mL in assay [15] (setting [24]); 50 µg/mL in assay [16]; no less than 200 µg/mL in [17]. Also, the MIC in [18] was 25 µg/mL; in [19], 25 to 50 µg/mL; in assay [20] it was 100 µg/mL; against Moraxella catarrhalis, 3.1 to 6.3 µg/mL. Further, the zone of inhibition at 4 µg/disc is 18 mm in [21], 17 to 18 mm in assay [7], 27 to 28 mm in assay [10] and 21 mm in assay [12].
As to `CN[C@@H]1[C@H](O)[C@H](NC)[C@H]2O[C@]3(O)[C@H](O[C@@H]2[C@H]1O)O[C@H](C)C[C@]3(O)CNCc1ccc(F)cc1` [compound 28, 3′-(S)-3′-[(4-fluoro)benzylaminomethyl)]dihydrospectinomycin Trihydrochloride], the MIC is 100 to 200 µg/mL in [1]; 200 µg/mL in assay [2]; greater than 200 µg/mL in assay [3]; no less than 200 µg/mL in the assay on E. coli K12 ΔtolC; greater than 200 µg/mL in assay [5] (Staphylococcus aureus (NRS70)); greater than 200 µg/mL in [8]. In addition, the MIC in [13] (Streptococcus pneumoniae (R6)) is no less than 200 µg/mL; in assay [14] (setting [22]) it was greater than 200 µg/mL; in [15] (setting [24]) it was greater than 200 µg/mL; in assay [16], greater than 200 µg/mL; in assay [17], greater than 200 µg/mL; in [19], greater than 200 µg/mL. The MIC in assay [20] was found to be 200 µg/mL. For the same molecule, the zone of inhibition at 4 µg/disc in assay [7], in assay [10] and in [12] was 0 mm in each case.
Take `CN[C@@H]1[C@H](O)[C@H](NC)[C@H]2O[C@]3(O)[C@H](O[C@@H]2[C@H]1O)O[C@H](C)C[C@@]3(O)CNCc1cccc(C)n1` [compound 22, 3′-(A)-3′-[(6-Methyl)-2-pyridinylmethylamino)dihydrospectinomycin Tetrahydrobromide]: the MIC is 6.3 µg/mL in [1]; 6.3 µg/mL in assay [2]; greater than 200 µg/mL in assay [3]; 12.5 µg/mL in the assay with Listeria monocytogenes; greater than 200 µg/mL in [4]; 25 µg/mL with E. coli K12 ΔtolC. The MIC was no less than 200 µg/mL in assay [5] (Staphylococcus aureus (NRS70)); 50 µg/mL in [6]; 100 to 200 µg/mL in assay [8]; greater than 200 µg/mL in assay [9]; greater than 200 µg/mL in [11]; 50 µg/mL in the assay with Bacillus anthracis. In addition, the MIC in assay [13] (Streptococcus pneumoniae (R6)) is 6.3 to 12.5 µg/mL; in [14] (setting [22]) it was greater than 200 µg/mL; in assay [14] (setting [23]) it was greater than 200 µg/mL; in assay [15] (setting [24]) it was 25 µg/mL; in [16] it was 50 to 100 µg/mL; in assay [17] it was greater than 200 µg/mL. The MIC is 12.5 µg/mL in [18], 50 µg/mL in assay [19], 100 µg/mL in [20] and 3.1 µg/mL in the assay on Moraxella catarrhalis. Further, the values for the zone of inhibition at 4 µg/disc in assay [21], in [7] and in assay [12] were 11 mm, 10 mm and 14 mm, respectively.
